Assay results taken from publication PMC11277476, “Synthesis and Biological Evaluation of Novel 2-Aroyl Benzofuran-Based Hydroxamic Acids as Antimicrotubule Agents” (International Journal of Molecular Sciences, 2024).

Columns and labels:
HeLa cells = experiment: In vitro growth inhibition (resazurin, 72 h), HeLa; assay type: cell-based; details: Homo sapiens, concentration inhibiting tumor cell proliferation by 50%, mean ± SE
MDA-MB-231 cells = experiment: In vitro growth inhibition (resazurin, 72 h), MDA-MB-231; assay type: cell-based; details: Homo sapiens, mean ± SE
A549 cells = experiment: In vitro growth inhibition (resazurin, 72 h), A549; assay type: cell-based; details: Homo sapiens, mean ± SE
HT-29 cells = experiment: In vitro growth inhibition (resazurin, 72 h), HT-29; assay type: cell-based; details: Homo sapiens, mean ± SE
MCF-7 cells = experiment: In vitro growth inhibition (resazurin, 72 h), MCF-7; assay type: cell-based; details: Homo sapiens, MCF7, mean ± SE
human recombinant HDAC8 = molecular target: T1, human recombinant HDAC8 (Homo sapiens, UniProt Q9BY41); experiment: HDAC isoform inhibition, fluorogenic substrate, HDAC8; assay type: biochemical; details: mean ± SE, read-out: IC50 (µM) hHDAC8
T1 construct: purchased BPS Bioscience 50008
T1 sequence (Q9BY41 1-377): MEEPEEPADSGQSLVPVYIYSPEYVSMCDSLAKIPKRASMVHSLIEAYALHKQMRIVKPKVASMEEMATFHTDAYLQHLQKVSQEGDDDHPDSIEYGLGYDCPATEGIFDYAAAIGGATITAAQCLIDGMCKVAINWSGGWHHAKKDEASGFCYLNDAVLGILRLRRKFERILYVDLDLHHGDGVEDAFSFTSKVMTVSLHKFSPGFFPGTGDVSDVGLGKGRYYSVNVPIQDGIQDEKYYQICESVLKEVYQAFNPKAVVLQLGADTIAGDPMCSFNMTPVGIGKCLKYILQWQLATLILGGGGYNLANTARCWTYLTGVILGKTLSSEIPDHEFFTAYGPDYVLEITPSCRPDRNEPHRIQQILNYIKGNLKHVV
Description: (§1) Further experiments were also carried out to evaluate the inhibitory activities of test compounds on selected HDAC isoforms. […] Following an incubation of 15 min at RT, fluorescence was measured in an EnSight multimodal plate reader (PerkinElmer, Boston, MA, USA) with an excitation wavelength of 360 nm and an emission wavelength of 450 nm.

[1] = system: panel of five human cancer cell lines (HeLa, MDA-MB-231, A549, HT-29, MCF-7); experiment: In vitro growth inhibition, range over the panel of five cancer cell lines; details: for IC50: read-out: IC50 values, range over the cancer cell line panel; for GI50: read-out: antiproliferative GI50 values, range over the five tumor lines
Description: All the cell lines were purchased from the American Type Culture Collection (ATCC, Manassas, VA, USA). Drug stock solutions were prepared for each compound by dissolving them in DMSO at 10 mM.
Cancer cells were seeded in tissue treated, flat bottom, 384-well plates (Corning, Corning, NY, USA) according to their optimal density, in 27 μL of complete medium per well, using a Microlab STAR 96-CORE liquid handling system (Hamilton Bonaduz, Bonaduz, Switzerland) as described previously [75]. Each compound was tested in a 6-points 2-fold dose–response curve, and each dose was tested in duplicate within each plate, in three independent experiments. The final concentration of DMSO in the wells never exceeded 0.1%, which was the maximum concentration.
Only plates with acceptable Z-prime quality metrics (Z′ > 0.6) were further analyzed for the drug screening. Raw data were normalized according to the following equation: cell viability (%) = (x − POS)/(NEG − POS) × 100, where x is the relative fluorescence units (RFU) collected from each single well, NEG is the mean of intraplate negative controls (DMSO, corresponding to 100% cell viability), and POS is the mean of intraplate positive controls (Bortezomib 1 μΜ, equal to 0% cell viability).

bovine brain tubulin = experiment: Inhibition of tubulin polymerization (turbidimetric); assay type: biochemical; details: tubulin at 10 μM; 20 min incubation at 30 °C; read-out: Tubulin Assembly IC50 ± SD
Description: (§2) Bovine brain tubulin was purified as described previously. To evaluate the effects of the compounds on tubulin assembly in vitro [77], varying concentrations were preincubated with 10 μM tubulin in 0.8 M monosodium glutamate (pH 6.6) at 30 °C, and the reaction mixtures were then cooled to 0 °C. After addition of GTP, the mixtures were transferred to 0 °C cuvettes in Beckman Coulter (Brea, CA, USA) DU-7400/DU-7500 recording spectrophotometers equipped with electronic temperature controllers and were warmed to 30 °C, and the assembly of tubulin was observed turbidimetrically. […] Inhibition of colchicine binding to tubulin was measured as described before, except that the reaction mixtures contained 0.5 μM tubulin and 5 μM each of [^3H]colchicine and test compound. Only one DEAE-cellulose filter was used per sample, and filtration was via gravity.

[2] = system: tubulin (colchicine site); experiment: Inhibition of [3H]colchicine binding to tubulin; set-up: species or system bovine; details: tubulin 0.5 µM, [3H]colchicine 5 µM, tested compound 5 µM
Description: as §2

human recombinant HDAC6 = molecular target: T2, human recombinant HDAC6 (Homo sapiens, UniProt Q9UBN7); experiment: HDAC isoform inhibition, fluorogenic substrate, HDAC6; assay type: biochemical; details: mean ± SE, read-out: IC50 (µM) hHDAC6
T2 construct: purchased BPS Bioscience 50056
T2 sequence (Q9UBN7 1-1215): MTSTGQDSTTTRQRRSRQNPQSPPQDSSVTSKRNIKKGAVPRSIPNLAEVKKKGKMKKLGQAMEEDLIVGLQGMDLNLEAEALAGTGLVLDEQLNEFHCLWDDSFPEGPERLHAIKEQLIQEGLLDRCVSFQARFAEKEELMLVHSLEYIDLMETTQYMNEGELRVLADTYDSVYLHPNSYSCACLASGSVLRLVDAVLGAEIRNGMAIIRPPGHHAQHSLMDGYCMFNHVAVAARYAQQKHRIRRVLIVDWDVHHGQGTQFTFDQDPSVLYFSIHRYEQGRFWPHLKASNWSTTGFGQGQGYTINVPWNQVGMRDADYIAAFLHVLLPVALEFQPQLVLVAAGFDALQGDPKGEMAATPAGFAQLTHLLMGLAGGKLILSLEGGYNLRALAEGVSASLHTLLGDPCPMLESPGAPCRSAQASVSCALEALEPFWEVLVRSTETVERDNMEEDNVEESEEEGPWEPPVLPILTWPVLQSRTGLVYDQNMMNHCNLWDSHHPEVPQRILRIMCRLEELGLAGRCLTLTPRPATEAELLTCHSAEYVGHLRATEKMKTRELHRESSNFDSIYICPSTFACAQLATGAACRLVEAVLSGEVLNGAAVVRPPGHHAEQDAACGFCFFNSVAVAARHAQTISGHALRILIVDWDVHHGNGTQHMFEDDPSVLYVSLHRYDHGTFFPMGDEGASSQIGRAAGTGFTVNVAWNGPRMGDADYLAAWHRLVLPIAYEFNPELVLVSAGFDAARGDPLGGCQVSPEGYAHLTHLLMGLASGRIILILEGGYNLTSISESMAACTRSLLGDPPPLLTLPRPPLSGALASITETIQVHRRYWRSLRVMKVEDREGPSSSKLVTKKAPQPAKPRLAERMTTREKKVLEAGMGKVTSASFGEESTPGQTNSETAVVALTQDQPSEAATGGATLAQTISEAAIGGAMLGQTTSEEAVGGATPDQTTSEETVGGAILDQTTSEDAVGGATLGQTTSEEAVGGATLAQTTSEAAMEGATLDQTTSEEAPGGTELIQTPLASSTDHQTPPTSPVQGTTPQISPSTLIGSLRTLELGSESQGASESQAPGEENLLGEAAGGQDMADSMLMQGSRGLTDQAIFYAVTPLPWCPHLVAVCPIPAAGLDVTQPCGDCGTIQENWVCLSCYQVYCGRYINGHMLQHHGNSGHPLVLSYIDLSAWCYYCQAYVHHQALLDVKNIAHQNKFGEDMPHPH
Description: as §1

human recombinant HDAC1 = molecular target: T3, human recombinant HDAC1 (Homo sapiens, UniProt Q13547); experiment: HDAC isoform inhibition, fluorogenic substrate, HDAC1; assay type: biochemical; details: mean ± SE, read-out: IC50 (µM) hHDAC1
T3 construct: purchased BPS Bioscience 50051
Description: as §1

human recombinant HDAC10 = molecular target: T4, human recombinant HDAC10 (Homo sapiens, UniProt Q969S8); experiment: HDAC isoform inhibition, fluorogenic substrate, HDAC10; assay type: biochemical; details: mean ± SE, read-out: IC50 (µM) hHDAC10
T4 construct: purchased BPS Bioscience 50060
T4 sequence (Q969S8 1-669): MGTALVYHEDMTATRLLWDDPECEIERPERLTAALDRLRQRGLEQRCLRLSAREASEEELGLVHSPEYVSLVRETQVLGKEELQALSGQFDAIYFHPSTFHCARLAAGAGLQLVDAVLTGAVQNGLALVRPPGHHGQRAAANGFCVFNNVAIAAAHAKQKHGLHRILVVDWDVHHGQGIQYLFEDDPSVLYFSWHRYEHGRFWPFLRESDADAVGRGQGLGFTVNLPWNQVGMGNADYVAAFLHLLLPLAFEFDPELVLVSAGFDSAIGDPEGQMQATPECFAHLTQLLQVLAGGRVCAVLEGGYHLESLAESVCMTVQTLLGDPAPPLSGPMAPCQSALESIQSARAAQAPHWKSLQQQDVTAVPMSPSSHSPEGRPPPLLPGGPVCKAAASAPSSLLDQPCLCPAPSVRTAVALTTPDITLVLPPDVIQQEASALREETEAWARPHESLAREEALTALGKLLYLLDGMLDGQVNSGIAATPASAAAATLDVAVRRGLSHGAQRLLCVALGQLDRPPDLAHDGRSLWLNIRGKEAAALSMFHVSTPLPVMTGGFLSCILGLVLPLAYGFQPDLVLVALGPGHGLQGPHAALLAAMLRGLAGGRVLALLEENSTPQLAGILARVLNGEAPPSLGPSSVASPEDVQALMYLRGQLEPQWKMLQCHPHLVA
Description: as §1

[3] = system: acetylated histone H3 (Ac-H3K9) in HT-29 cells; experiment: Western blot of acetylated histone H3 (Ac-H3K9) in HT-29 cells; assay type: cell-based, human; details: 10 µM, 6 h
Description: HT-29 cells were treated with selected compounds for 6 h at 10 µM, lysed, and then processed as previously described.
Antibodies directed against total histone H3 and its acetylated form (Ac-H3K9) were purchased from Cell Signaling Technology, Danvers, Massachusetts, while anti-vinculin antibody was purchased from Santa Cruz Biotechnology. Membranes were visualized using ECL select (GE Healthcare), and images were acquired using the iBright FL1500 Imaging System (Thermo Fisher Scientific, Waltham, MA, USA). Anti-vinculin (1:25,000, Santa Cruz Biotechnology, Dallas, TX, USA) was used as loading controls.

T3 sequence (Q13547 whole entry, canonical isoform): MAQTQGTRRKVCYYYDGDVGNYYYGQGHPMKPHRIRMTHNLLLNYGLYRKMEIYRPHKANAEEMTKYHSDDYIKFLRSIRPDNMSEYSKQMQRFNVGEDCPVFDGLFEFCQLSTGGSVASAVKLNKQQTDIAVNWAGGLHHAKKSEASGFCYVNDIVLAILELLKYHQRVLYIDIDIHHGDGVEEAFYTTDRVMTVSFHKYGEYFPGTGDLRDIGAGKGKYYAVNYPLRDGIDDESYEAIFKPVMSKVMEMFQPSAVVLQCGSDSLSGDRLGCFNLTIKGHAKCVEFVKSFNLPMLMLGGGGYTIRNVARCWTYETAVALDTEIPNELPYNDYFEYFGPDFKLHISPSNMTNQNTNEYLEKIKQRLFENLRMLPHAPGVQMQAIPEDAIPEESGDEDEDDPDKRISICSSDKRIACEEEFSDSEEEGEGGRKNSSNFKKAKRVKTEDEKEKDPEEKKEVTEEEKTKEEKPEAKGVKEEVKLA

## COc1cc2oc(C(=O)c3cc(OC)c(OC)c(OC)c3)c(C)c2cc1/C=C/C(=O)NO [Compound 6a, (E)-N-Hydroxy-3-(6-methoxy-3-methyl-2-(3,4,5-trimethoxybenzoyl)benzofuran-5-yl)acrylamide]
HeLa cells
  IC50: 5.2 ± 0.03 nM
MDA-MB-231 cells
  IC50: 5 ± 0.04 nM
A549 cells
  IC50: 23.5 ± 0.24 nM
HT-29 cells
  IC50: 7.5 ± 0.11 nM
MCF-7 cells
  IC50: 7 ± 0.2 nM
Human recombinant HDAC8
  IC50: > 30 µM
[1]
  IC50: 5 to 23 nM
  GI50: 5 to 23 nM

## COc1cc(OC)cc(C(=O)c2oc3cc(OC)c(/C=C/C(=O)NO)cc3c2C)c1 [Compound 6c, (E)-3-(2-(3,5-Dimethoxybenzoyl)-6-methoxy-3-methylbenzofuran-5-yl)-N-hydroxyacrylamide]
HeLa cells
  IC50: 4 ± 0.01 nM
MDA-MB-231 cells
  IC50: 26.9 ± 1.74 nM
A549 cells
  IC50: 43.9 ± 0.55 nM
HT-29 cells
  IC50: 29 ± 0.01 nM
MCF-7 cells
  IC50: 19 ± 1 nM
Bovine brain tubulin
  IC50: 420 ± 70 nM
[2]
  Colchicine Binding % Inhibition ± SD: 81 ± 4%
Human recombinant HDAC6
  IC50: 12.5 ± 0.8 µM
Human recombinant HDAC1
  IC50: > 30 µM
Human recombinant HDAC8
  IC50: > 30 µM
Human recombinant HDAC10
  IC50: > 30 µM
other
  melting point: 170 to 172 °C
[1]
  GI50: 4 to 44 nM

## COc1cccc(C(=O)c2oc3cc(OC)c(/C=C/C(=O)NO)cc3c2C)c1 [Compound 6e, (E)-N-Hydroxy-3-(6-methoxy-2-(3-methoxybenzoyl)-3-methylbenzofuran-5-yl)acrylamide]
HeLa cells
  IC50: 6 ± 0.05 nM
MDA-MB-231 cells
  IC50: 44.7 ± 3.12 nM
A549 cells
  IC50: 54.2 ± 2.03 nM
HT-29 cells
  IC50: 7.9 ± 0.02 nM
MCF-7 cells
  IC50: 33 ± 6 nM
Bovine brain tubulin
  IC50: 1100 ± 100 nM
[2]
  Colchicine Binding % Inhibition ± SD: 86 ± 1%
Human recombinant HDAC6
  IC50: 17.1 ± 1.2 µM
Human recombinant HDAC1
  IC50: 13.4 ± 0.9 µM
Human recombinant HDAC8
  IC50: > 30 µM
Human recombinant HDAC10
  IC50: > 30 µM
other
  melting point: 100 to 102 °C

## COc1cc2oc(C(=O)c3cc(OC)c(OC)c(OC)c3)c(C)c2cc1C#CC(=O)NO [Compound 11a, N-Hydroxy-3-[6-methoxy-3-methyl-2-(3,4,5-trimethoxybenzoyl)-1-benzofuran-5-yl] prop-2-ynamide]
HeLa cells
  IC50: 0.4 ± 0.04 nM
MDA-MB-231 cells
  IC50: 16.1 ± 0.01 nM
A549 cells
  IC50: 18.7 ± 0.72 nM
HT-29 cells
  IC50: 6.6 ± 0.96 nM
MCF-7 cells
  IC50: 9.5 ± 0.7 nM
Bovine brain tubulin
  IC50: 490 ± 100 nM
[2]
  Colchicine Binding % Inhibition ± SD: 69 ± 0.1%
Human recombinant HDAC6
  IC50: > 30 µM
Human recombinant HDAC1
  IC50: 14.1 ± 1 µM
Human recombinant HDAC8
  IC50: > 30 µM
Human recombinant HDAC10
  IC50: > 30 µM
other
  melting point: 268 to 270 °C
[1]
  IC50: 0.4 to 19 nM

## COc1ccc2c(C)c(C(=O)c3cc(OC)c(OC)c(OC)c3)oc2c1 [TR187, 2-(3′,4′,5′-trimethoxybenzoyl)-3-methyl-6-methoxy benzofuran, reference compound]
HeLa cells
  IC50: 8.5 ± 0.11 nM
MDA-MB-231 cells
  IC50: 3.1 ± 0.01 nM
A549 cells
  IC50: 24 ± 0.44 nM
HT-29 cells
  IC50: 35.2 ± 0.82 nM
MCF-7 cells
  IC50: 72 ± 4 nM
Bovine brain tubulin
  IC50: 620 nM
[3]
  acetylated histone H3 (Ac-H3K9) level, Western blot: does not show any inhibitory activity towards HDAC even at the cellular level
[1]
  IC50: 3 to 72 nM
